From US9481654B2, “Compositions and methods for inhibition of the JAK pathway” (Rigel Pharmaceuticals, Inc., priority 2006, dated 2016)

Legend:
Assay type in all cases: cell-based
[1] = system: IL-4 stimulated CD23 upregulation in human Ramos B cells (JAK-1/JAK-3, Stat-6); assay: Assay for Ramos B-Cell Line Stimulated with IL-4 (CD23 upregulation, FACS); details: Table III Example 3
Method in brief: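 Log-phase Ramos B cells (5×10^4 per point, RPMI with 5% serum) pre-incubated with compound or DMSO 1 h at 37° C, then stimulated with IL-4 at 50 units/mL final for 20-24 h. CD23 upregulation measured by staining and flow cytometry.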

[2] = system: primary human T-cells (IL-2 induced proliferation, JAK-1/JAK-3, Stat-5); assay: Primary Human T-Cell Proliferation Assay Stimulated with IL-2 (CellTiter-Glo); details: Table III Example 4
Method in brief: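 Pre-activated peripheral-blood T-cells (TCR/CD28 stimulated, IL-2-maintained) were IL-2-depleted, then plated in Yssel's medium with 80 U/mL IL-2 in the cell suspension and compound in duplicate. Proliferation ran 72 h at 37 °C; viable cells quantified by CellTiter-Glo ATP luminescence, with IL-2-omitted wells as unstimulated control.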

[3] = system: IFNγ induced ICAM-1 (CD54) up-regulation in U937 human monocytic cells (JAK/Stat pathway); assay: U937 IFNγ ICAM1 FACS Assay; details: Table III Example 6; 10 ng/mL IFNγ, 18-24 hours
From the text: A549 lung epithelial cells and U937 cells up-regulate ICAM-1 (CD54) surface expression in response to a variety of different stimuli. Therefore, using ICAM-1 expression as readout, test compound effects on different signaling pathways can be assessed in the same cell type. Stimulation with IL-1β through the IL-1β receptor activates the TRAF6/NFκB pathway resulting in up-regulation of ICAM-1. IFNγ induces ICAM-1 up-regulation through activation of the JAK1/JAK2 pathway. The up-regulation of ICAM-1 can be quantified by flow cytometry across a compound dose curve and EC50 values are calculated. Exemplary assays of this type are described in greater detail in Examples 5 and 6. U937 human monocytic cells up-regulate ICAM-1 (CD54) surface expression in response to a variety of different stimuli. Therefore, using ICAM-1 expression as readout, compound effects on different signaling pathways can be assessed in the same cell type. IFNγ up-regulates ICAM-1 through activation of the JAK/Stat pathway. In this example, the up-regulation of ICAM-1 by IFNγ was assessed. […] The cells were then plated at a concentration of 100,000 cells per 160 μL in 96 well flat bottom plates. The test compounds were then diluted as follows: 10 mM test compound was diluted 1:5 in DMSO (3 μL 10 mM test compound in 12 μL DMSO), followed by a 1:3 serial dilution of test compound in DMSO (6 μL test compound serially diluted into 12 μL DMSO to give 3-fold dilutions). […] For control wells, 4 μL of DMSO was diluted into 76 μL 10% RPMI. […] The cells and compounds were then pre-incubated for 30 minutes at 37° C. with 5% CO2. […] The cells were kept under conditions for stimulation for 18-24 hours at 37° C. with 5% CO2. […] Cells were spun down at 1000 rpm for 5 minutes at 4° C., following which the supernatant was removed. […] The cells were then incubated on ice in the dark for 30 minutes. […] After suspension, the cells were centrifuged at 1000 rpm for 5 min at 4° C. […] Detection was performed using a BD LSR I System Flow Cytometer, purchased from BD Biosciences of San Jose, Calif. The live cells were gated for live scatter and the geometric mean of ICAM-APC was measured (Becton-Dickinson CellQuest software version 3.3, Franklin Lakes, N.J.). Both % live cells and ICAM-1 expression was analyzed. The assays for the test compounds were carried out in parallel with a control compound of known activity.

Row | SMILES | IC50 [1] [nM] | IC50 [2] [nM] | IC50 [3] [nM]
1 | CNS(=O)(=O)c1ccc(Nc2ncc(C)c(Nc3ccc(CNS(=O)(=O)C4CC4)cc3)n2)cc1 [Compound I-163, N4-(4-cyclopropylsulfonylaminomethyl)phenyl-5-methyl-N2-(4-methylaminosulfonyl)phenyl-2,4-pyrimidinediamine] | 46.7 | 52.7 | 143
2 | Cc1cnc(Nc2ccc(S(=O)(=O)NC3CCCC3)cc2)nc1Nc1ccc(CNS(=O)(=O)C2CC2)cc1 [Compound I-166, N2-(4-cyclopentylaminosulfonyl)phenyl-N4-(4-cyclopropylsulfonylaminomethyl)phenyl-5-methyl-2,4-pyrimidinediamine] | 82.5 | 212 | 280
3 | CCC(=O)N(Cc1ccc(Nc2nc(Nc3ccc(S(N)(=O)=O)cc3)ncc2C)cc1)S(=O)(=O)C1CC1 [Compound I-167, N2-(4-aminosulfonyl)phenyl-N4-[4-(N-cyclopropylsulfonyl-N-propionyl)aminomethyl]phenyl-5-methyl-2,4-pyrimidinediamine] | 132 | 116 | 587
4 | Cc1cnc(Nc2cccc(S(=O)(=O)NCc3ccncc3)c2)nc1Nc1ccc(CNS(=O)(=O)C2CC2)cc1 [Compound I-169, N4-(4-cyclopropylsulfonylaminomethyl)phenyl-5-methyl-N2-[3-(4-pyridylmethyl)aminosulfonyl]phenyl-2,4-pyrimidinediamine] | 140 | 206 | 478
5 | Cc1cnc(Nc2cccc(S(=O)(=O)NC3CCCC3)c2)nc1Nc1ccc(CNS(=O)(=O)C2CC2)cc1 [Compound I-170, N2-(3-cyclopentylaminosulfonyl)phenyl-N4-(4-cyclopropylsulfonylaminomethyl)phenyl-5-methyl-2,4-pyrimidinediamine] | 136 | 172 | 238
6 | Cc1cnc(Nc2ccc(S(=O)(=O)NC(C)C)cc2)nc1Nc1ccc(CNS(=O)(=O)C2CC2)cc1 [Compound I-172, N4-(4-cyclopropylsulfonylaminomethyl)phenyl-N2-(4-isopropylaminosulfonyl)phenyl-5-methyl-2,4-pyrimidinediamine] | 52.1 | 81 | 123
7 | CCCNS(=O)(=O)c1ccc(Nc2ncc(C)c(Nc3ccc(CNS(=O)(=O)C4CC4)cc3)n2)cc1 [Compound I-177, N4-(4-cyclopropylsulfonylaminomethyl)phenyl-5-methyl-N2-(4-propylaminosulfonyl)phenyl-2,4-pyrimidinediamine] | 17.7 | 160 | 107
8 | Cc1cnc(Nc2ccc(S(=O)(=O)NCC3CC3)cc2)nc1Nc1ccc(CNS(=O)(=O)C2CC2)cc1 [Compound I-179, N2-(4-cyclopropylmethylaminosulfonyl)phenyl-N4-(4-cyclopropylsulfonylaminomethyl)phenyl-5-methyl-2,4-pyrimidinediamine] | 45.9 | 290 | 365
9 | COCCNS(=O)(=O)c1ccc(Nc2ncc(C)c(Nc3ccc(CNS(=O)(=O)C4CC4)cc3)n2)cc1 [Compound I-183, N4-(4-cyclopropylsulfonylaminomethyl)phenyl-N2-[4-(2-methoxyethyl)aminosulfonyl]phenyl-5-methyl-2,4-pyrimidinediamine] | 66.7 | 155 | 207
10 | Cc1ccc(Nc2ncc(C)c(Nc3cccc(CNS(=O)(=O)C4CC4)c3)n2)cc1S(=O)(=O)NC(C)C [Compound I-209, N4-(3-cyclopropylsulfonylaminomethyl)phenyl-N2-(3-isopropylaminosulfonyl-4-methyl)phenyl-5-methyl-2,4-pyrimidinediamine] | 113 | 131 | 529
11 | CNS(=O)(=O)c1cc(Nc2ncc(C)c(Nc3cccc(CNS(=O)(=O)C4CC4)c3)n2)ccc1C [Compound I-211, N4-(3-cyclopropylsulfonylaminomethyl)phenyl-5-methyl-N2-(4-methyl-3-methylaminosulfonyl)phenyl-2,4-pyrimidinediamine] | 103 | 48.2 | 177
12 | CCNS(=O)(=O)c1ccc(Nc2ncc(C)c(Nc3cccc(CNS(=O)(=O)C4CC4)c3)n2)cc1 [Compound I-212, N4-(3-cyclopropylsulfonylaminomethyl)phenyl-N2-(4-ethylaminosulfonyl)phenyl-5-methyl-2,4-pyrimidinediamine] | 236 | 160 | 215
13 | CCNS(=O)(=O)c1cc(Nc2ncc(C)c(Nc3cccc(CNS(=O)(=O)C4CC4)c3)n2)ccc1C [Compound I-213, N4-(3-cyclopropylsulfonylaminomethyl)phenyl-N2-(3-ethylaminosulfonyl-4-methyl)phenyl-5-methyl-2,4-pyrimidinediamine] | 88.2 | 91.8 | 125
14 | C#CCNS(=O)(=O)c1cc(Nc2ncc(C)c(Nc3cccc(CNS(=O)(=O)C4CC4)c3)n2)ccc1C [Compound I-214, N4-(3-cyclopropylsulfonylaminomethyl)phenyl-5-methyl-N2-(4-methyl-3-propargylaminosulfonyl)phenyl-2,4-pyrimidinediamine] | 162 | 136 | 190
15 | CCCNS(=O)(=O)c1cc(Nc2ncc(C)c(Nc3cccc(CNS(=O)(=O)C4CC4)c3)n2)ccc1C [Compound I-215, N4-(3-cyclopropylsulfonylaminomethyl)phenyl-5-methyl-N2-(4-methyl-3-propylaminosulfonyl)phenyl-2,4-pyrimidinediamine] | 132 | 116 | 385
16 | Cc1ccc(Nc2ncc(C)c(Nc3cccc(CNS(=O)(=O)C4CC4)c3)n2)cc1S(=O)(=O)NCC1CC1 [Compound I-216, N2-(3-cyclopropylmethylaminosulfonyl-4-methyl)phenyl-N4-(3-cyclopropylsulfonylaminomethyl)phenyl-5-methyl-2,4-pyrimidinediamine] | 161 | 154 | 590
17 | COCCCNS(=O)(=O)c1cc(Nc2ncc(C)c(Nc3cccc(CNS(=O)(=O)C4CC4)c3)n2)ccc1C [Compound I-217, N4-(3-cyclopropylsulfonylaminomethyl)phenyl-N2-[3-(3-methoxypropyl)aminosulfonyl-4-methyl]phenyl-5-methyl-2,4-pyrimidinediamine] | 80.2 | 129 | 496
18 | Cc1cnc(Nc2cccc(S(N)(=O)=O)c2)nc1Nc1ccc2c(c1)CCN(S(=O)(=O)C1CC1)C2 [II-2, N2-(3-aminosulfonyl)phenyl-N4-[(N-cyclopropylsulfonyl)-1,2,3,4-tetrahydroisoquinolin-6-yl]-5-methyl-2,4-pyrimidinediamine] | 7.75 | 30.4 | 107
19 | Cc1ccc(Nc2ncc(C)c(Nc3ccc4c(c3)CN(S(=O)(=O)C3CC3)C4)n2)cc1S(N)(=O)=O [II-7, N2-(3-Aminosulfonyl-4-methylphenyl)-N4-[(2-cyclopropylsulfonyl)-isoindolin-5-yl]-5-methyl-2,4-pyrimidinediamine] | 130 | 155 | 652
20 | Cc1cnc(Nc2ccc(S(N)(=O)=O)cc2)nc1Nc1ccc2c(c1)CN(S(=O)(=O)C1CC1)C2 [II-9, N2-(4-Aminosulfonyl-phenyl)-N4-[(2-cyclopropylsulfonyl)-isoindolin-5-yl]-5-methyl-2,4-pyrimidinediamine] | 118 | 277 | 1110
